The text below walks through data of US6506749B2, “7-oxo-pyridopyrimidines (I)” (Syntex (U.S.A.) LLC, priority 2000, dated 2003).

Molecules are shown by their SMILES. Counter-ions that a name gives are not always drawn.

For `CCS(=O)(=O)N1CCC(Nc2ncc3cc(-c4ccccc4Cl)c(=O)n(C)c3n2)CC1.Cl`, the melting point lay in the range of 144 to 150 °C.
Then `Cl.Cn1c(=O)c(-c2ccccc2Cl)cc2cnc(N[C@H]3CC[C@H](OC(N)=O)CC3)nc21`, with 234.7 to 235.4 °C; and `Cl.Cn1c(=O)c(-c2ccccc2Cl)cc2cnc(NC3CCC4(CC3)OCC(CO)CO4)nc21` (stereo not shown), with 146 to 150 °C.
The same measure for `Cl.O=c1c(-c2ccccc2Cl)cc2cnc(NC3CCOCC3)nc2n1-c1ccc(F)cc1`: 150 to 154 °C.
Consider `Cl.Cn1c(=O)c(-c2ccccc2Cl)cc2cnc(NC3CCN(CC(F)(F)F)CC3)nc21`, for which the melting point lay in the range of 180 to 183 °C.
As for `Cl.Nn1c(=O)c(-c2ccccc2Cl)cc2cnc(NC3CCS(=O)(=O)CC3)nc21`, the melting point fell in the range of 240 to 243 °C.
With `CS(=O)(=O)N1CCC(Nc2ncc3cc(-c4ccccc4Cl)c(=O)n(N)c3n2)CC1.Cl`, the melting point lay within 180.7 to 213.2 °C.
For the compound `CC(=O)OC1CCC(Nc2ncc3cc(-c4ccccc4Cl)c(=O)n(C)c3n2)CC1` (stereo not shown) [Cpd 5], the melting point is 200.9 to 201.2 °C.
Then `Cl.Cn1c(=O)c(-c2ccccc2Cl)cc2cnc(NC3CCS(=O)(=O)C3)nc21` (stereo not shown), with 256 to 260 °C.
The same measure for `Cl.Cn1c(=O)c(-c2ccccc2Cl)cc2cnc(NC3CCN(CCO)CC3)nc21`: 265.9 to 266.6 °C; for `CS(=O)(=O)N[C@H]1CC[C@H](Nc2ncc3cc(-c4ccccc4Cl)c(=O)[nH]c3n2)CC1.Cl`: over 300 °C.
Compound `COc1ccccc1-c1cc2cnc(NC3CCN(S(C)(=O)=O)CC3)nc2n(C)c1=O.Cl` had a melting point of 202.7 to 204.3 °C.
Consider `Cl.Cn1c(=O)c(-c2ccccc2F)cc2cnc(NC3CCN(S(=O)(=O)C(F)(F)F)CC3)nc21`, for which the melting point was in the range of 213.5 to 221 °C.
Then `CCCS(=O)(=O)N1CCC(Nc2ncc3cc(-c4ccccc4F)c(=O)n(C)c3n2)CC1.Cl`, with 206 to 209 °C; and `Cl.Cn1c(=O)c(-c2ccccc2F)cc2cnc(NC3CCN(S(C)(=O)=O)CC3)nc21`, with 205 to 207.5 °C.
Then `Cl.Cn1c(=O)c(-c2ccccc2Cl)cc2cnc(NCC3CCC(O)CC3)nc21` (stereo not shown), with 148 to 151.5 °C.
Then `COc1ccccc1-c1cc2cnc(NC3CCN(S(=O)(=O)C(F)(F)F)CC3)nc2n(C)c1=O.Cl`, with 140.8 to 147.3 °C; and `CC(C)S(=O)(=O)N1CCC(Nc2ncc3cc(-c4ccccc4F)c(=O)n(C)c3n2)CC1.Cl`, with 204 to 209 °C.
Turning to `Cl.Cn1c(=O)c(-c2ccccc2Cl)cc2cnc(NC3CCN(C=O)CC3)nc21`, the melting point fell in the range of 143 to 148 °C.
The same measure for `C[C@H](Nc1ncc2cc(-c3ccccc3Cl)c(=O)n(N)c2n1)C(C)(C)O.Cl`: over 300 °C; for `CCS(=O)(=O)N1CCC(Nc2ncc3cc(-c4ccccc4OC)c(=O)n(C)c3n2)CC1.Cl`: 120.3 to 139.7 °C.
Then `Cl.O=c1c(-c2ccccc2Cl)cc2cnc(NC3CCS(=O)(=O)CC3)nc2n1CCO`, with 182 to 186 °C; and `CC(C)(CO)Nc1ncc2cc(-c3ccccc3Cl)c(=O)n(N)c2n1.Cl`, with 145 to 163 °C; and `Cn1c(=O)c(-c2ccccc2Cl)cc2cnc(N[C@H]3CC[C@H](O)CC3)nc21` (as salt: salt) [Cpd 1], with 163.4 to 171.1 °C.
On to `Cl.Cn1c(=O)c(-c2ccccc2Cl)cc2cnc(NC3CCN(S(=O)(=O)C(F)(F)F)CC3)nc21`, for which the melting point fell in the range of 134 to 140 °C.
Consider `O=c1c(-c2ccccc2Cl)cc2cnc(N[C@H]3CC[C@H](O)CC3)nc2n1CC(F)(F)F` [Example 55], for which the melting point was 227.2 to 230.4 °C.
For `Cl.Cn1c(=O)c(-c2ccccc2Cl)cc2cnc(N[C@H]3CCCCNC3=O)nc21`, the melting point was 140 to 144 °C.
In turn, `CS(=O)(=O)N[C@H]1CC[C@H](Nc2ncc3c(n2)=NC(=O)C(c2ccccc2Cl)C=3)CC1` (stereo partly drawn) (as salt: hydrochloric acid salt) [Example 16, 2-(trans-4-methanesulfonylaminocyclohexylamino)-6-(2-chlorophenyl)-pyrido[2,3-d]pyrimidin-7-one] had a melting point of over 300 °C.
`Cc1ccccc1-c1cc2cnc(NC3CCN(S(C)(=O)=O)CC3)nc2n(C)c1=O.Cl` showed a melting point of 221.4 to 221.8 °C.
The same measure for `Cl.O=c1[nH]c2nc(NC3(CO)CCCC3)ncc2cc1-c1ccccc1Cl`: 290 to 293 °C.
Then `Cc1ccccc1-c1cc2cnc(NC3CCN(S(=O)(=O)C(C)C)CC3)nc2n(C)c1=O.Cl`, with 142 to 149 °C; and `Cl.O=C1CCC(Nc2ncc3cc(-c4ccccc4Cl)c(=O)[nH]c3n2)CC1`, with 265.5 to 269.9 °C; and `Cn1c(=O)c(-c2ccccc2Cl)cc2cnc(N[C@H]3CC[C@H](N)CC3)nc21` (as salt: hydrochloride) [Example 13, 2-(trans-4-aminocyclohexylamino)-6-(2-chlorophenyl)-8-methyl-pyrido[2,3-d]pyrimidin-7-one], with 190.3 to 191.4 °C.
In the case of `Cl.Cn1c(=O)c(-c2ccccc2Cl)cc2cnc(NC3CCN(S(=O)(=O)CC(F)(F)F)CC3)nc21`, the melting point fell in the range of 215 to 219 °C.
As for `CS(=O)(=O)N1CCC(Nc2ncc3cc(-c4ccccc4Cl)c(=O)n(CC(F)(F)F)c3n2)CC1.Cl`, the melting point lay within 148.6 to 151.6 °C.
In turn, `Cl.Cn1c(=O)c(-c2ccccc2Cl)cc2cnc(NC3CCC4(CC3)OCC(C)(CO)CO4)nc21` (stereo not shown) registered a melting point of 180.3 to 181.2 °C.
Then `Cl.Cn1c(=O)c(-c2ccccc2Cl)cc2cnc(NC3CCOC3)nc21` (stereo not shown), with 193.9 to 194.5 °C; and `Cl.NC(=O)O[C@H]1CC[C@H](Nc2ncc3cc(-c4ccccc4Cl)c(=O)[nH]c3n2)CC1`, with 291 to 293.5 °C; and `O=C1c2ccccc2C(=O)N1CCn1c(=O)c(-c2ccccc2Cl)cc2cnc(N[C@H]3CC[C@H](O)CC3)nc21` (as salt: HCl) [Example 77], with 208 to 210 °C.
Then `CS(=O)(=O)N1CCC(Nc2ncc3cc(-c4ccccc4Cl)c(=O)n(-c4ccc(F)cc4)c3n2)CC1` (as salt: HCl) [Example 96], with 165 to 169 °C; and `Cl.Cn1c(=O)c(-c2ccccc2Cl)cc2cnc(NC3CCN(C(N)=O)CC3)nc21`, with 192 to 202 °C.
`Cc1ccccc1-c1cc2cnc(NC3CCSCC3)nc2n(C)c1=O` [Cpd 140] showed a melting point of 186.6 to 188.1 °C.
In turn, `CC1C(=O)C(c2ccccc2Cl)=Cc2cnc(NOCc3ccccc3)nc21.Cl` (stereo not shown) displayed a melting point of 199.2 to 199.5 °C.
The same measure for `Cl.O=c1[nH]c2nc(N[C@H]3CC[C@H](O)CC3)ncc2cc1-c1ccccc1Cl`: 191.1 to 194.3 °C; for `COc1ccccc1-c1cc2cnc(NC3CCN(S(=O)(=O)C(C)C)CC3)nc2n(C)c1=O.Cl`: 157 to 163.1 °C.
In turn, `COc1ccccc1-c1cc(/C=N\C(=N)NC2CCOCC2)cn(C)c1=O.Cl` had a melting point of 212 to 213.7 °C.
The same measure for `Cc1ccccc1-c1cc2cnc(NC3CCS(=O)(=O)CC3)nc2n(C)c1=O.Cl`: 240 to 258 °C; for `Cl.Cn1c(=O)c(-c2ccccc2Cl)cc2cnc(N[C@H]3CC[C@@](C)(O)CC3)nc21`: 156 to 169 °C.
On to `CCOC(=O)C1CCC(Nc2ncc3cc(-c4ccccc4Cl)c(=O)n(C)c3n2)CC1.Cl` (stereo not shown), for which the melting point lay in the range of 192.1 to 198.3 °C.
